Earlier results in patent US20050250828A1 (Entire Interest, priority 2004, published 2005).

Assays:
[1] = oral administration

CCOc1nc2cccc(C(=O)OC(C)OC(=O)OC3CCCCC3)c2n1Cc1ccc(-c2ccccc2-c2nnn[nH]2)cc1 (racemic) [candesartan cilexetil, (±)-1-[[(cyclohexyloxy)carbonyl]oxy]ethyl-2-ethoxy-1-[[2′-(1H-tetrazol-5-yl)[1,1′biphenyl]-4-yl]methyl]-1H-benzimidazole-7-carboxylate]
solubility in methanol (methanol): sparingly soluble
solubility in water (water): sparingly soluble

CCOc1nc2cccc(C(=O)O)c2n1Cc1ccc(-c2ccccc2-c2nnn[nH]2)cc1 [Candesartan, 2-ethoxy-1-[[2′-(1H-tetrazol-5-yl)biphenyl-4-yl]methyl]-1H-benzimidazole-7-carboxylic acid]
absorption when administered orally [1]: poorly absorbed
